Results from PubChem BioAssay AID248 (DTP/NCI, 2004).
“And” between values parts separate entries of the source, which are not always exact repeats. Identical values can stand only once. Inconclusive results and toxic doses are left out. No stated cut-off is given here; in the data, active means T/C of 150% or more; inactive means T/C below 125%.

Tested on: L1210 leukemia ip in BDF1 mice, survival T/C
Assay: NCI In Vivo Anticancer Drug Screen. Data for tumor model L1210 Leukemia (intraperitoneal) in B6D2F1 (BDF1) mice
Settings: endpoint: mean survival time, higher = longer survival
Outline: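 Antitumor effect is assessed in tumor-bearing animals. Survival in the compound arm is compared with a vehicle-dosed control arm and expressed as their quotient.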

[1] = dose: 100.0 mg/kg/injection, schedule: Q01DX009 (ip), vehicle: saline with Tween-80
[2] = dose: 100.0 mg/kg/injection, schedule: Q04DX003 (ip), vehicle: saline with Tween-80
[3] = dose: 200.0 mg/kg/injection, schedule: Q01DX009 (ip), vehicle: saline with Tween-80
[4] = dose: 200.0 mg/kg/injection, schedule: Q04DX003 (ip), vehicle: saline with Tween-80
[5] = dose: 400.0 mg/kg/injection, schedule: Q04DX003 (ip), vehicle: saline with Tween-80
[6] = dose: 100.0 mg/kg/injection, schedule: Q01DX001 (ip), vehicle: carboxymethylcellulose (CMC)
[7] = dose: 200.0 mg/kg/injection, schedule: Q01DX001 (ip), vehicle: carboxymethylcellulose (CMC)
[8] = dose: 100.0 mg/kg/injection, schedule: Q01DX001 (ip), vehicle: saline
[9] = dose: 200.0 mg/kg/injection, schedule: Q01DX001 (ip), vehicle: saline
[10] = dose: 400.0 mg/kg/injection, schedule: Q01DX001 (ip), vehicle: saline
[11] = dose: 100.0 mg/kg/injection, schedule: Q04DX002 (ip), vehicle: Klucel (hydroxypropylcellulose) (HPC)
[12] = dose: 200.0 mg/kg/injection, schedule: Q04DX002 (ip), vehicle: Klucel (hydroxypropylcellulose) (HPC)
[13] = dose: 400.0 mg/kg/injection, schedule: Q04DX002 (ip), vehicle: Klucel (hydroxypropylcellulose) (HPC)
[14] = dose: 100.0 mg/kg/injection, schedule: Q04DX002 (ip), vehicle: saline
[15] = dose: 200.0 mg/kg/injection, schedule: Q04DX002 (ip), vehicle: saline
[16] = dose: 400.0 mg/kg/injection, schedule: Q04DX002 (ip), vehicle: saline
[17] = dose: 100.0 mg/kg/injection, schedule: Q01DX001 (ip), vehicle: saline with Tween-80
[18] = dose: 200.0 mg/kg/injection, schedule: Q01DX001 (ip), vehicle: saline with Tween-80
[19] = dose: 100.0 mg/kg/injection, schedule: Q04DX003 (ip), vehicle: Klucel (hydroxypropylcellulose) (HPC)
[20] = dose: 200.0 mg/kg/injection, schedule: Q04DX003 (ip), vehicle: Klucel (hydroxypropylcellulose) (HPC)
[21] = dose: 400.0 mg/kg/injection, schedule: Q04DX003 (ip), vehicle: Klucel (hydroxypropylcellulose) (HPC)
[22] = dose: 100.0 mg/kg/injection, schedule: Q01DX009 (ip), vehicle: Klucel (hydroxypropylcellulose) (HPC)
[23] = dose: 200.0 mg/kg/injection, schedule: Q01DX009 (ip), vehicle: Klucel (hydroxypropylcellulose) (HPC)
[24] = dose: 400.0 mg/kg/injection, schedule: Q01DX009 (ip), vehicle: Klucel (hydroxypropylcellulose) (HPC)
[25] = dose: 50.0 mg/kg/injection, schedule: Q01DX009 (ip), vehicle: saline with Tween-80
[26] = dose: 300.0 mg/kg/injection, schedule: Q01DX001 (ip), vehicle: carboxymethylcellulose (CMC)

Measured: T/C

COc1ccc(-c2cnc3c(N)nn(C)c3n2)cc1
inactive: [1] 109 % of control | [2] 92 % of control | [3] 101 % of control | [4] 100 % of control | dose: 400.0 mg/kg/injection, schedule: Q01DX009 (ip), vehicle: saline with Tween-80 109 % of control | [5] 94 % of control

CCN(CC)CC(O)c1ccnc2c(N)cc(OC)cc12 (centres undefined)
inactive: dose: 75.0 mg/kg/injection, schedule: Q01DX001 (ip), vehicle: acetone 104 % of control | dose: 150.0 mg/kg/injection, schedule: Q01DX001 (ip), vehicle: acetone 101 % of control

NC(=O)c1ncn(C2OC(CO)C(O)C2O)c1C(N)=O (centres undefined)
inactive: [6] 104 % of control | [7] 123 % of control

CCOC(=O)c1cc(N(CCOS(C)(=O)=O)CCOS(C)(=O)=O)ccc1[N+](=O)[O-]
inactive: dose: 50.0 mg/kg/injection, schedule: Q01DX001 (ip), vehicle: saline 103 % of control | [8] 97 % of control | [9] 97 % of control | [10] 97 % of control

N/N=C(/CC1C(=O)Nc2ccccc21)c1ccccc1 (centres undefined)
inactive: [11] 94 % of control | [12] 108 % of control | [13] 91 % of control

OC1(CBr)CCCCC1
inactive: [2] 102 % of control | [4] 98 % of control | [5] 95 % of control

OCCOc1ccc(OCCO)cc1
inactive: [2] 94 % of control | [4] 97 % of control | [5] 99 % of control

O=Cc1ccc(OC(=O)Nc2ccccc2F)cc1
inactive: [8] 96 % of control | dose: 100.0 mg/kg/injection, schedule: Q01DX009 (ip), vehicle: saline 98 % of control and 101 % of control | [14] 103 % of control and 107 % of control | [9] 99 % of control | dose: 200.0 mg/kg/injection, schedule: Q01DX009 (ip), vehicle: saline 106 % of control and 112 % of control | [15] 100 % of control and 104 % of control | [10] 92 % of control | dose: 400.0 mg/kg/injection, schedule: Q01DX009 (ip), vehicle: saline 96 % of control | [16] 93 % of control and 109 % of control

CCOC(=O)C1C(=O)C(C(=O)Nc2ccccc2)C(=O)C(C(=O)OCC)C1c1ccc(OC(C)=O)cc1 (centres undefined)
inactive: dose: 50.0 mg/kg/injection, schedule: Q01DX001 (ip), vehicle: saline with Tween-80 94 % of control | [17] 100 % of control | [18] 96 % of control

CCOC(=O)c1cnc(SC)nc1Nc1ccc(F)cc1
inactive: [19] 88 % of control | [20] 100 % of control | [21] 95 % of control

O=C(CCCN1CC=C(N2CCc3ccccc32)CC1)c1ccc(F)cc1
inactive: [2] 102 % of control | [4] 102 % of control

CCN(CC)C(=S)N1CCCCC1
inactive: [22] 99 % of control | [11] 100 % of control | [23] 105 % of control | [12] 90 % of control | [24] 108 % of control | [13] 110 % of control

COC(=O)C1C=Cc2ccccc21 (centres undefined)
inactive: [2] 104 % of control | [4] 93 % of control | [5] 102 % of control

Clc1ccc(C#CP(C#Cc2ccc(Cl)cc2)C#Cc2ccc(Cl)cc2)cc1
inactive: [25] 88 % of control | [1] 103 % of control

O=[N+]([O-])c1ncn(C2CCCCO2)c1Br (centres undefined)
inactive: dose: 50.0 mg/kg/injection, schedule: Q04DX003 (ip), vehicle: gum acacia 99 % of control | dose: 100.0 mg/kg/injection, schedule: Q04DX003 (ip), vehicle: gum acacia 100 % of control | dose: 200.0 mg/kg/injection, schedule: Q04DX003 (ip), vehicle: gum acacia 100 % of control

O=S(=O)(Nc1ccccn1)c1ccccc1
inactive: [23] 103 % of control | [24] 98 % of control

CC(C)(C)P1(=O)OCC(c2ccccc2)CO1 (centres undefined)
inactive: dose: 100.0 mg/kg/injection, schedule: Q04DX003 (ip), vehicle: other 101 % of control | dose: 200.0 mg/kg/injection, schedule: Q04DX003 (ip), vehicle: other 107 % of control

Nc1snc2ncccc12
inactive: dose: 50.0 mg/kg/injection, schedule: Q01DX009 (ip), vehicle: Klucel (hydroxypropylcellulose) (HPC) 97 % of control | [22] 92 % of control | [19] 89 % of control | [23] 103 % of control | [20] 87 % of control

O=NN(CCCCl)C(=O)Nc1ccc(NC(=O)N(CCCCl)N=O)cc1
inactive: dose: 12.5 mg/kg/injection, schedule: Q01DX001 (ip), vehicle: carboxymethylcellulose (CMC) 111 % of control | dose: 25.0 mg/kg/injection, schedule: Q01DX001 (ip), vehicle: carboxymethylcellulose (CMC) 109 % of control | dose: 50.0 mg/kg/injection, schedule: Q01DX001 (ip), vehicle: carboxymethylcellulose (CMC) 106 % of control | [6] 117 % of control | [7] 111 % of control | [26] 111 % of control | dose: 400.0 mg/kg/injection, schedule: Q01DX001 (ip), vehicle: carboxymethylcellulose (CMC) 106 % of control | dose: 500.0 mg/kg/injection, schedule: Q01DX001 (ip), vehicle: carboxymethylcellulose (CMC) 106 % of control | dose: 600.0 mg/kg/injection, schedule: Q01DX001 (ip), vehicle: carboxymethylcellulose (CMC) 109 % of control | dose: 800.0 mg/kg/injection, schedule: Q01DX001 (ip), vehicle: carboxymethylcellulose (CMC) 112 % of control | dose: 1000.0 mg/kg/injection, schedule: Q01DX001 (ip), vehicle: carboxymethylcellulose (CMC) 114 % of control

COC(=O)c1ccccc1N(C)C(=O)c1ccccc1
inactive: [19] 102 % of control | [20] 107 % of control | [21] 109 % of control

NNC(=O)CCc1ccccc1Br
inactive: [2] 99 % of control | [4] 92 % of control

CC(=O)OCC(C)(C)c1ccccc1
inactive: [14] 105 % of control | [15] 97 % of control | [16] 105 % of control

O=C(CCl)Nc1ccccc1S(=O)(=O)F
inactive: dose: 18.75 mg/kg/injection, schedule: Q01DX009 (ip), vehicle: carboxymethylcellulose (CMC) 91 % of control | dose: 37.5 mg/kg/injection, schedule: Q01DX009 (ip), vehicle: carboxymethylcellulose (CMC) 92 % of control | dose: 75.0 mg/kg/injection, schedule: Q01DX001 (ip), vehicle: carboxymethylcellulose (CMC) 98 % of control | dose: 75.0 mg/kg/injection, schedule: Q04DX003 (ip), vehicle: carboxymethylcellulose (CMC) 94 % of control | dose: 150.0 mg/kg/injection, schedule: Q01DX001 (ip), vehicle: carboxymethylcellulose (CMC) 93 % of control | dose: 150.0 mg/kg/injection, schedule: Q04DX003 (ip), vehicle: carboxymethylcellulose (CMC) 88 % of control | [26] 97 % of control

COC(=O)c1cn[nH]c1N=Nc1ccc(N(CCCl)CCCl)cc1
inactive: dose: 75.0 mg/kg/injection, schedule: Q01DX001 (ip), vehicle: other 109 % of control | dose: 150.0 mg/kg/injection, schedule: Q01DX001 (ip), vehicle: other 124 % of control | dose: 300.0 mg/kg/injection, schedule: Q01DX001 (ip), vehicle: other 119 % of control

CSc1ccc(NC(=O)Oc2cc3ccccc3cc2C(=O)Nc2ccccc2)cc1
inactive: [25] 97 % of control and 99 % of control | [17] 95 % of control | [1] 96 % of control and 86 % of control | dose: 100.0 mg/kg/injection, schedule: Q04DX002 (ip), vehicle: saline with Tween-80 100 % of control and 92 % of control | [2] 87 % of control | [18] 87 % of control | [3] 96 % of control and 90 % of control | dose: 200.0 mg/kg/injection, schedule: Q04DX002 (ip), vehicle: saline with Tween-80 98 % of control and 91 % of control | [4] 94 % of control | dose: 400.0 mg/kg/injection, schedule: Q01DX001 (ip), vehicle: saline with Tween-80 88 % of control | dose: 400.0 mg/kg/injection, schedule: Q04DX002 (ip), vehicle: saline with Tween-80 95 % of control | [5] 91 % of control
